Assay results taken from patent publication US8952192B2, “Phosphorylated and branched dihydroxy-pentane-dione (DPD) analogs as quorum sensing inhibitors in bacteria” (University of Maryland, College Park, priority 2011, dated 2015).
“Also recorded” adds a separate entry of the source.

What was measured:
P. aeruginosa PAO1 = assay: Tri-species synthetic ecosystem (E. coli, S. typhimurium, P. aeruginosa): pyocyanin production; type: cell-based; settings: tri-species culture, 40 μM analog, no exogenous AI-2, 24 h
Description: Effect of analogs in a tri-species synthetic ecosystem. […] Isobutyl-DPD (40 μM) and phenyl-DPD (40 μM) were added to a tri-species synthetic ecosystem created by culturing E. coli, S. typhimurium and P. aeruginosa in the same tubes. In order to differentiate and monitor the QS response from each organism, different and orthogonal reporter strains were used; in E. coli, AI-2 mediated dsRED expression, in S. typhimurium, AI-2 mediated β-galactosidase production; and in P. aeruginosa effects of AI-2 were examined for pyocyanin production.
S. typhimurium MET708, P. aeruginosa PAO1 and E. coli W3110 pCT6 dsRED were each cultured separately overnight in LB medium supplemented with the appropriate antibiotic. P. aeruginosa PAO1, S. typhimurium MET708 and E. coli W3110 pCT6 dsRED were diluted (25 μL:2.5 μL:100 μL) of the overnight culture respectively, into a single 2 mL final volume of fresh LB medium without antibiotics. […] The S. typhimurium lacZ (β-galactosidase) activity was measured after 4 h. The E. coli response was determined after 24 h, by fixing the cells with 1:1 cold 4% paraformaldehyde and using flow cytometric analysis. Samples were analyzed by flow cytometry (FACS Canto II, BD 394 Biosciences), with 30,000 gated events analyzed per sample. […]

[1] = test system: lsr expression in S. typhimurium (lsr-lacZ reporter strains); assay: QS response (lsr expression): AI-2 dependent β-galactosidase production, Miller assay; type: cell-based, Salmonella typhimurium
Description: The panel of C1-alkyl analogs was screened to identify QS modulators in the enteric bacteria E. coli and S. typhimurium. Transcription of the QS associated lsr operon, by using lsr-lacZ reporter strains (Table 2) which produce β-galactosidase in response to added AI-2 was monitored. In order to first establish if the analogs were agonists or antagonists in the QS circuit, the analogs were incubated with E. coli LW7 pLW11 and S. typhimurium MET715 (FIG. 19a-b) both of which are luxS^−. None of the analogs, except ethyl-DPD behaved as agonists for lsr expression. Previous studies investigating AI-2 antagonism in P. aeruginosa or in S. typhimurium were carried out using chemically synthesized AI-2 added to luxS^− cells. […] The same trends were obtained by adding a 1:1 ratio of enzymatically synthesized AI-2 and DPD analogs to the luxS^− strains E. coli LW7 pLW11 and S. typhimurium MET715 (FIG. 11a-b). None of the tested DPD analogs were bacteriocidal or bacteriostatic as the OD600 values of E. coli ZK126 pLW11 and S. typhimurium MET708 in the presence and absence of the analogs were similar (FIG. 10). Though the QS circuitry of the enteric organisms, E. coli and S. typhimurium are homologous they respond differently to the DPD analogs. The E. coli QS circuitry is susceptible to being silenced by a variety of DPD analogs of different shapes and sizes whereas in S. typhimurium, only a handful of DPD analogs could antagonize the action of AI-2. […] Isobutyl-DPD emerged as an effective and non-species-specific quencher; causing significant lsr expression knockdowns in both E. coli and S. typhimurium.
The QS response indicated by lsr gene expression was analyzed in pure culture studies by culturing E. coli LW7 pLW11, E. coli ZK126 pLW11 and S. typhimurium MET708, S. typhimurium MET715 overnight in LB medium supplemented with appropriate antibiotics as stated previously. These cells were then diluted into fresh LB medium (with antibiotics) and grown to an OD600 of 0.8-1.0 at 30° C., 250 rpm. Cells were then collected by centrifugation at 10,000×g for 10 minutes, and resuspended in 10 mM phosphate buffer. AI-2 (20 μM) and the respective analog (20 μM) were added to the E. coli or S. typhimurium suspension for 2 hours at 37° C. AI-2 dependent β-galactosidase production was quantified by the Miller assay.
The QS response indicated by lsr gene expression was analyzed in pure culture studies by culturing E. coli LW7 pLW11 and S. typhimurium MET715 overnight at 30° C. in LB medium supplemented with appropriate antibiotics as stated previously. These cells were then diluted into fresh LB medium (with antibiotics) and grown to an OD600 of 0.4-0.8 at 37° C., 250 rpm. Cells were then collected by centrifugation at 10,000×g for 10 min and resuspended in 10 mM phosphate buffer. AI-2 (20 μM) and the respective analog (20 μM) were added to the E. coli or S. typhimurium suspension for 2 h at 37° C. AI-2 dependent β-galactosidase production was quantified by the Miller assay.
The QS response indicated by lsr gene expression was analyzed in pure culture studies by culturing E. coli LW7 pLW11, E. coli ZK126 pLW11 and S. typhimurium MET708, S. typhimurium MET715 overnight in LB medium individually supplemented with appropriate antibiotics, as specified above. These cells were diluted into fresh LB medium (with antibiotics) and grown to an OD600 of 0.8-1.0 at 30° C., 250 rpm. Cells were collected by centrifugation at 10,000×g for 10 minutes, and resuspended in 10 mM phosphate buffer. AI-2 (20 μM) and the respective analog (20 μM) were added to the E. coli or S. typhimurium suspension for 2 hours at 37° C. AI-2 dependent β-galactosidase production was quantified by the Miller assay.

V. harveyi BB170 = assay: QS response (bioluminescence), trispecies synthetic ecosystem; type: cell-based; settings: 40 μM, LM media
Description: The effect of isobutyl-DPD or isopropyl-DPD on QS associated bioluminescence production by V. harveyi was recorded by measuring the light production from reporter strain, V. harveyi BB170. The analogs were added at concentrations of (20 μM or 40 μM) to V. harveyi BB170 which was assayed as previously described.
The S. typhimurium MET708, V. harveyi BB170 and E. coli W3110 pCT6 were each cultured separately overnight in LM medium supplemented with the appropriate antibiotic. V. harveyi BB170, S. typhimurium MET708 and E. coli MDAI-2 were diluted (1:4:8), respectively, into a single 1 ml volume of fresh LM medium without antibiotics. The co-culture was supplemented with either 20 μM or 40 μM analog initially and again after 3 and 5 hours of growth. The V. harveyi luminescence response was measured after 2.5 hours. The S. typhimurium lacZ (β-galactosidase) activity was measured after 4 hours. The E. coli response was determined after 8 hours, by fixing the cells with 1:1 cold 4% paraformaldehyde and using flow cytometric analysis. Samples were analyzed by flow cytometery (FACS Canto II, BD 394 Biosciences), with 20,000 gated events analyzed per sample.

V. harveyi = assay: DPD analogs and representative bacterial species affected (Table 1); type: cell-based; parameters: key: x: DPD Analogs and representative bacterial species affected
E. coli = assay: as above; type: cell-based; parameters: key: x: DPD Analogs and representative bacterial species affected

Row | Compound | QS inhibition in P. aeruginosa (pyocyanin production) (P. aeruginosa PAO1) | effect on native lsr expression (QS response) ([1]; S. typhimurium MET708 (luxS+), cells produce their own AI-2) | decrease of lacZ expression ([1]; S. typhimurium MET715 (LuxS−), 20 μM AI-2 + 20 μM analog) | IC50 ([1]; concentration reducing lsr expression (β-galactosidase production) to 50% in the presence of 20 μM exogenously added synthetic DPD, read-out: IC50 of analog (nM) to inhibit QS in S. typhimurium) | decrease of bioluminescence in V. harveyi (V. harveyi BB170) | bacterial species affected: V. harveyi (V. harveyi) | bacterial species affected: E. coli (E. coli)
1 | O=C(C(=O)C(O)CO)c1ccccc1 (stereo not shown) [Phenyl-DPD, Phenyl DPD] | retained some activity |  |  |  |  |  | 
2 | CC(C)CC(=O)C(=O)[C@@H](O)CO [Isobutyl-DPD, isobutyl-DPD] |  | significant knocked down; also recorded: significantly inhibited signaling | about 50% | 20000 nM | 33% | x | x
